Source: US9499535B2, “Kinase inhibitors” (ORIGENIS GMBH, priority 2011, dated 2016)

Legend:
LRRK2 = LRRK2 (Homo sapiens, UniProt Q5S007); assay: LRRK2 assay (LanthaScreen Eu Kinase Binding Assay); details: 5 nM LRRK2, 10 nM tracer 236, RT 1 h; read-out: LRRK2 Activites: IC50
Excerpt: Binding of the tracer to the kinase is detected using a europium-labeled anti-tag antibody, which binds to the kinase of interest. […] Binding of an inhibitor to the kinase competes for binding with the tracer, resulting in a loss of FRET. The fluorescence intensity ratio is directly proportional to the amount of peptide phosphorylation.
The inhibitor concentration was plotted versus the emission ratio to determine the IC50 using XLFit 5.0 (IDBS, Guildford) to fit to a sigmoidal dose response curve with a variable slope.

SYK kinase = molecular target: T1, SYK kinase (Homo sapiens, UniProt P43405); assay: SYK assay (OMNIA Kinase Assay, Invitrogen); assay type: biochemical; details: apparent Ki calculated from the IC50 using the Cheng-Prusoff equation; 1 mM ATP, 10 μM Peptide Substrate; read-out: SYK Activities: Ki
T1 construct: purchased Invitrogen, Carlsbad
In short: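 Reaction velocities were measured from kinetic fluorescence reads (360/485 nm, every 30 s over 30 min) of Mg2+-chelated SOX signal. Conditions were 1 mM ATP, 10 μM Omnia Tyr 7 peptide and 0.2 mM DTT at 30° C. Sigmoidal IC50 fits were converted to apparent Ki using Cheng-Prusoff.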

LRRK2, sequence (Q5S007 970-2527 limits assumed): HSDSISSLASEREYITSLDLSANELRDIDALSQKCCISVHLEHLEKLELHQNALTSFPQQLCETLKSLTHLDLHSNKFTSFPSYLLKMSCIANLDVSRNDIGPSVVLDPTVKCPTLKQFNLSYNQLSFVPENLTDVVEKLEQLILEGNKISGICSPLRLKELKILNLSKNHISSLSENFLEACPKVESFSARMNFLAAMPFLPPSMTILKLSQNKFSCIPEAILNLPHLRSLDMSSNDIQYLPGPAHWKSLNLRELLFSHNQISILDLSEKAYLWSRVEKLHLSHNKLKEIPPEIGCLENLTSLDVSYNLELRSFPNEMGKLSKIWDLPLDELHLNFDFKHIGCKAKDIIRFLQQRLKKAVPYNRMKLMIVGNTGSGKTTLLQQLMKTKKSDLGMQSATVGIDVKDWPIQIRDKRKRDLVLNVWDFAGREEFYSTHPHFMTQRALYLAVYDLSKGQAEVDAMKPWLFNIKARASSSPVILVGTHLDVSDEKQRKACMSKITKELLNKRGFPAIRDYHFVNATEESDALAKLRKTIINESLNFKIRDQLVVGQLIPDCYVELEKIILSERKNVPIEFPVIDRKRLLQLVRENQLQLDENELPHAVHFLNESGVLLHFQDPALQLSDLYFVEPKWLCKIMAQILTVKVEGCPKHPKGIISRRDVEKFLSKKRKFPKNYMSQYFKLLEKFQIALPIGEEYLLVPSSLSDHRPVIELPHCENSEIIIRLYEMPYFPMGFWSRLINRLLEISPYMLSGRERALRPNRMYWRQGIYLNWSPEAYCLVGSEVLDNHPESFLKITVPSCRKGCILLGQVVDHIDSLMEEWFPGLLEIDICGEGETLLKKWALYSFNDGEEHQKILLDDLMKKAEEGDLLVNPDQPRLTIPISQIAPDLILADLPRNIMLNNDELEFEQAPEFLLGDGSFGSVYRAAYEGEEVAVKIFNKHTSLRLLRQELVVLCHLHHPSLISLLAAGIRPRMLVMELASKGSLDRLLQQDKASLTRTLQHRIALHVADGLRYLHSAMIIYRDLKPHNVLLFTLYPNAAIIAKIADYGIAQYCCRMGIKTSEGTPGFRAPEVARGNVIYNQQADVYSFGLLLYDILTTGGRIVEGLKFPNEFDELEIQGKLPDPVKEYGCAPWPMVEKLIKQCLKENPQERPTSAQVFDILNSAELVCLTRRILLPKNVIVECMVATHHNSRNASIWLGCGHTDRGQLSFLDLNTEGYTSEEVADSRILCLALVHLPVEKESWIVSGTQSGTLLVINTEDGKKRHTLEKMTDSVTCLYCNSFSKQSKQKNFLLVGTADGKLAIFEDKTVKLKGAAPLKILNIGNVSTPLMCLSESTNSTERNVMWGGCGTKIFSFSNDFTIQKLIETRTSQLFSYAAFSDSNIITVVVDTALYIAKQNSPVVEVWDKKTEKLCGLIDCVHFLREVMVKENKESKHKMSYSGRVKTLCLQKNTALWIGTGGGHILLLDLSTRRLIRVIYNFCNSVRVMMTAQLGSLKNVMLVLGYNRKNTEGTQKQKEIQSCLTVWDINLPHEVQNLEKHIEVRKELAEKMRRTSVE

| SMILES | IC50 (LRRK2) | Ki (SYK kinase) |
| --- | --- | --- |
| O=C(c1ccc(Nc2nc3ccc(I)cc3c3cn[nH]c23)cc1)N1CCCC1 [Example #356, (4-((8-iodo-3H-pyrazolo[3,4-c]quinolin-4-yl)amino)phenyl)(pyrrolidin-1-yl)methanone] | 100 to 1000 nM | 100 to 1000 nM |
| COc1ccc2nc(Nc3ccc(OC(F)F)c(OC)c3)c3n[nH]cc3c2c1 [Example #328, N-(4-(difluoromethoxy)-3-methoxyphenyl)-8-methoxy-2H-pyrazolo[3,4-c]quinolin-4-amine] | 100 to 1000 nM | 100 to 1000 nM |
| COc1ccc2nc(Nc3ccc4c[nH]nc4c3)c3n[nH]cc3c2c1 [Example #74, (1H-Indazol-6-yl)-(8-methoxy-2H-pyrazolo[3,4-c]quinolin-4-yl)-amine] | 10 to 100 nM | 10 to 100 nM |
| COc1ccc2nc(Nc3cccc(C)c3)c3n[nH]cc3c2c1 [Example #37, (8-Methoxy-2H-pyrazolo[3,4-c]quinolin-4-yl)-m-tolyl-amine] | 100 to 1000 nM | 100 to 1000 nM |
| COc1ccc(Nc2nc3ccc(C#N)cc3c3c[nH]nc23)cc1OC [Example #216, 4-(3,4-Dimethoxy-phenylamino)-2H-pyrazolo[3,4-c]quinoline-8-carbonitrile] | 100 to 1000 nM | 10 to 100 nM |
| COc1ccc2nc(Nc3ccc(N4CCSCC4)cc3)c3[nH]ncc3c2c1 [Example #107, (8-Methoxy-3H-pyrazolo[3,4-c]quinolin-4-yl)-(4-thiomorpholin-4-yl-phenyl)-amine] | 100 to 1000 nM | 10 to 100 nM |
| CCOc1ccc(Nc2nc3ccc(OC)cc3c3cn[nH]c23)cc1OC [Example #105, (4-Ethoxy-3-methoxy-phenyl)-(8-methoxy-3H-pyrazolo[3,4-c]quinolin-4-yl)-amine] | 100 to 1000 nM | 10 to 100 nM |
| COc1ccc2nc(Nc3cccc(N4CCOCC4)c3)c3[nH]ncc3c2c1 [Example #81, (8-Methoxy-3H-pyrazolo[3,4-c]quinolin-4-yl)-(3-morpholin-4-yl-phenyl)-amine] | 100 to 1000 nM | 100 to 1000 nM |
| COc1ccc2nc(Nc3ccc4c(c3)NC(=O)CC4)c3n[nH]cc3c2c1 [Example #93, 7-(8-Methoxy-2H-pyrazolo[3,4-c]quinolin-4-ylamino)-3,4-dihydro-1H-quinolin-2-one] | < 10 nM | < 10 nM |
| COc1ccc2c(c1)nc(Nc1ccc3c(c1)NCCO3)c1n[nH]cc12 [Example #173, (3,4-Dihydro-2H-benzo[1,4]oxazin-6-yl)-(7-methoxy-2H-pyrazolo[3,4-c]quinolin-4-yl)-amine] | 100 to 1000 nM | 10 to 100 nM |
| COc1ccc2nc(Nc3ccc4c(c3)NCC(C)(C)S4)c3n[nH]cc3c2c1 [Example #88, (2,2-Dimethyl-3,4-dihydro-2H-benzo[1,4]thiazin-6-yl)-(8-methoxy-2H-pyrazolo[3,4-c]quinolin-4-yl)-amine] | < 10 nM | 10 to 100 nM |
| COc1ccc2nc(Nc3cccc(S(=O)(=O)CCO)c3)c3n[nH]cc3c2c1 [Example #351, 2-((3-((8-methoxy-2H-pyrazolo[3,4-c]quinolin-4-yl)amino)phenyl)sulfonyl)ethan-1-ol] | 100 to 1000 nM | 100 to 1000 nM |
| COc1ccc(Nc2nc3ccccc3c3c(C)[nH]nc23)cc1OC [Example #207, (3,4-Dimethoxy-phenyl)-(1-methyl-2H-pyrazolo[3,4-c]quinolin-4-yl)-amine] | 100 to 1000 nM | 10 to 100 nM |
| COc1cccc2nc(Nc3ccc4c(c3)NCCO4)c3n[nH]cc3c12 [Example #198, (3,4-Dihydro-2H-benzo[1,4]oxazin-6-yl)-(9-methoxy-2H-pyrazolo[3,4-c]quinolin-4-yl)-amine] | 10 to 100 nM | 100 to 1000 nM |
| COc1ccc2nc(Nc3ccc(S(=O)(=O)N(C)C)cc3)c3n[nH]cc3c2c1 [Example #343, 4-((8-methoxy-2H-pyrazolo[3,4-c]quinolin-4-yl)amino)-N,N-dimethylbenzenesulfonamide] | 100 to 1000 nM | 10 to 100 nM |
| COc1ccc2nc(Nc3ccc4c(c3)OCC(=O)N4)c3[nH]ncc3c2c1 [Example #224, 7-(8-Methoxy-3H-pyrazolo[3,4-c]quinolin-4-ylamino)-4H-benzo[1,4]oxazin-3-one] | 100 to 1000 nM | 10 to 100 nM |
| COc1ccc2nc(Nc3ccc(C)cc3)c3n[nH]cc3c2c1 [Example #244, (8-Methoxy-2H-pyrazolo[3,4-c]quinolin-4-yl)-p-tolyl-amine] | 100 to 1000 nM | 10 to 100 nM |
| COCCOc1ccc(Nc2nc3ccc(OC)cc3c3cn[nH]c23)cc1 [Example #104, [4-(2-Methoxy-ethoxy)-phenyl]-(8-methoxy-3H-pyrazolo[3,4-c]quinolin-4-yl)-amine] | 100 to 1000 nM | 10 to 100 nM |

| SMILES | IC50 (LRRK2) | Ki (SYK kinase) |
| --- | --- | --- |
| COc1ccc2nc(Nc3ccc(Cc4ccncc4)cc3)c3n[nH]cc3c2c1 [Example #161, (8-Methoxy-2H-pyrazolo[3,4-c]quinolin-4-yl)-(4-pyridin-4-ylmethyl-phenyl)-amine] | 10 to 100 nM | 10 to 100 nM |
| COc1ccc2nc(Nc3ccc(F)c(OC)c3)c3n[nH]cc3c2c1 [Example #124, (4-Fluoro-3-methoxy-phenyl)-(8-methoxy-2H-pyrazolo[3,4-c]quinolin-4-yl)-amine] | 100 to 1000 nM | 10 to 100 nM |
| COc1ccc2nc(Nc3ccc(C(O)(C(F)(F)F)C(F)(F)F)cc3)c3n[nH]cc3c2c1 [Example #321, 1,1,1,3,3,3-hexafluoro-2-(4-((8-methoxy-2H-pyrazolo[3,4-c]quinolin-4-yl)amino)phenyl)propan-2-ol] | 100 to 1000 nM | 100 to 1000 nM |
| COc1ccc2nc(Nc3cc(C4CCC4)n[nH]3)c3n[nH]cc3c2c1 [Example #85, (5-Cyclobutyl-2H-pyrazol-3-yl)-(8-methoxy-2H-pyrazolo[3,4-c]quinolin-4-yl)-amine] | < 10 nM | < 10 nM |
| COc1ccc2nc(Nc3ccc(OC)c(F)c3)c3n[nH]cc3c2c1 [Example #125, (3-Fluoro-4-methoxy-phenyl)-(8-methoxy-2H-pyrazolo[3,4-c]quinolin-4-yl)-amine] | 100 to 1000 nM | 10 to 100 nM |
| COc1ccc2nc(Nc3ccc(N(C)C)cc3)c3n[nH]cc3c2c1 [Example #51, N-(8-Methoxy-2H-pyrazolo[3,4-c]quinolin-4-yl)-N′,N′-dimethyl-benzene-1,4-diamine] | 10 to 100 nM | 10 to 100 nM |
| COc1ccc2nc(Nc3cccc(S(=O)(=O)NC4CC4)c3)c3n[nH]cc3c2c1 [Example #344, N-cyclopropyl-3-((8-methoxy-2H-pyrazolo[3,4-c]quinolin-4-yl)amino)benzenesulfonamide] | 10 to 100 nM | 10 to 100 nM |
| COc1ccc2nc(Nc3cc(F)c(F)c(F)c3)c3n[nH]cc3c2c1 [Example #317, 8-methoxy-N-(3,4,5-trifluorophenyl)-2H-pyrazolo[3,4-c]quinolin-4-amine] | 100 to 1000 nM | 10 to 100 nM |
| CN1CCN(C2CCN(c3ccc(Nc4nc5cccc(F)c5c5cn[nH]c45)cc3)CC2)CC1 [Example #363, 9-fluoro-N-(4-(4-(4-methylpiperazin-1-yl)piperidin-1-yl)phenyl)-3H-pyrazolo[3,4-c]quinolin-4-amine] | 10 to 100 nM | 10 to 100 nM |
| COc1ccc2nc(Nc3cc(-c4ccccc4)n[nH]3)c3n[nH]cc3c2c1 [Example #77, (8-Methoxy-2H-pyrazolo[3,4-c]quinolin-4-yl)-(5-phenyl-2H-pyrazol-3-yl)-amine] | < 10 nM | 10 to 100 nM |
| COc1ccc2nc(Nc3ccc(N4CCCC4=O)cc3)c3[nH]ncc3c2c1 [Example #106] | 100 to 1000 nM | 100 to 1000 nM |
| COc1ccc2nc(Nc3ccc4oc(=O)[nH]c4c3)c3[nH]ncc3c2c1 [Example #108, 5-(8-Methoxy-3H-pyrazolo[3,4-c]quinolin-4-ylamino)-3H-benzooxazol-2-one] | 100 to 1000 nM | 100 to 1000 nM |
| COc1ccc2nc(Nc3ccc4c(c3)OCCO4)c3n[nH]cc3c2c1 [Example #101, (2,3-Dihydro-benzo[1,4]dioxin-6-yl)-(8-methoxy-2H-pyrazolo[3,4-c]quinolin-4-yl)-amine] | 100 to 1000 nM | 10 to 100 nM |
| COc1ccc(Nc2nc3cccc(OC)c3c3c[nH]nc23)cc1OC [Example #200, (3,4-Dimethoxy-phenyl)-(9-methoxy-2H-pyrazolo[3,4-c]quinolin-4-yl)-amine] | 100 to 1000 nM | 100 to 1000 nM |
| COc1ccc2nc(Nc3ccc(N4CCS(=O)(=O)CC4)cc3)c3n[nH]cc3c2c1 [Example #111, [4-(1,1-Dioxo-1lambda-6-thiomorpholin-4-yl)-phenyl]-(8-methoxy-3H-pyrazolo[3,4-c]quinolin-4-yl)-amine] | 10 to 100 nM | 10 to 100 nM |
| COc1ccc2c(c1)nc(Nc1ccc(N3CCOCC3)cc1)c1n[nH]cc12 [Example #177, (7-Methoxy-2H-pyrazolo[3,4-c]quinolin-4-yl)-(4-morpholin-4-yl-phenyl)-amine] | 100 to 1000 nM | < 10 nM |
| COc1ccc2nc(Nc3ccc4c(c3)NCCO4)c3[nH]ncc3c2c1 [Example #109, (3,4-Dihydro-2H-benzo[1,4]oxazin-6-yl)-(8-methoxy-3H-pyrazolo[3,4-c]quinolin-4-yl)-amine] | 10 to 100 nM | 10 to 100 nM |
| COc1cccc2c1nc(Nc1ccc(C)cc1)c1n[nH]cc12 [Example #274, (6-Methoxy-2H-pyrazolo[3,4-c]quinolin-4-yl)-p-tolyl-amine] | 100 to 1000 nM | 10 to 100 nM |
